According to PubChem BioAssay AID1241 (SRMLSC, 2008):

assay: compounds inducing NF-kB luciferase expression – cell-based, SH-SY5Y, dose response (AID 1241); settings: SH-SY5Y NF-kB promoter luciferase reporter, fold induction; call rule not given here

EC50, active:
Cc1nn(-c2ccccc2Cl)c(Cl)c1/C=N/Nc1cccc(C(=O)O)c1 4370 nM
CSc1ccc(/C=N/Nc2cccc(C(=O)O)c2)cc1 3430 nM
COc1ccc(-c2coc3cc(OC)cc(O)c3c2=O)cc1 1720 nM
O=c1c(-c2ccc3c(c2)OCCO3)coc2cc(O)cc(O)c12 22700 nM
O=C(NCCC1=CCCCC1)c1ccc(Cl)cc1 198 nM
Clc1ccc2nc(N3CCCCC3)[nH]c2c1 7790 nM
Nc1nc(Nc2ccccc2)nc2ccccc12 1380 nM
O=C(CCS(=O)(=O)c1ccccc1)Nc1ccc(-c2nc3ccccc3s2)cc1 1140 nM
Cc1ccc(NC(=O)COc2ccccc2[N+](=O)[O-])nc1 18200 nM
CC(=O)Nc1ccc2oc(-c3ccccc3Br)nc2c1 1060 nM
O=C(c1ccccc1)n1ccc(-c2cnc(-c3ccccc3)s2)n1 1490 nM
CCC(=O)Nc1ccc2oc(-c3ccccc3Br)nc2c1 2640 nM
Cc1[nH]n(-c2cccc(Cl)c2)c(=O)c1C=NCc1ccco1 4940 nM
COc1cccc(-c2cc(C(=O)Nc3cccc(O)c3)no2)c1 498 nM
COC(=O)c1cccc(NC(=O)c2onc3c2CCCC3)c1 2040 nM
CCCCNc1ncnc2c1cnn2-c1ccccc1 6070 nM
C=CCN=c1scc(-c2ccccc2)n1/N=C/c1ccccn1 1460 nM
N/C(=N\OC(=O)c1cccc(Cl)c1)c1ccccn1 1950 nM
COc1ccc(-c2cc(-c3ccccc3O)[nH]n2)cc1 968 nM
Cc1cccc(Nc2nc3ccccc3s2)c1C 4270 nM
Nc1ccc(-c2nc3cc(N)ccc3s2)cc1 1100 nM
COc1ccc(N/C=C\C(=O)c2ccc3c(c2)OCO3)cc1 1630 nM
O=C(/C=C/c1c[nH]c2ccccc12)c1ccccc1 5440 nM
CCC(=O)Nc1nc(-c2ccc3c(c2)OCCO3)cs1 4540 nM
Cc1c(C(=O)N2CCc3ccccc32)oc2ccccc12 3370 nM
CSC(=S)N/N=C(\C)c1ccccc1 1170 nM
Cc1ccc2nc(-c3ccc(NC(=O)COC(=O)c4cncc(Br)c4)cc3)sc2c1 393 nM
Fc1ccccc1Cn1nnc(-c2ccc3c(c2)OCO3)n1 8430 nM
Cc1ccc(C(=O)Nc2ccc3c(c2)CCC3)cc1 158 nM
Cc1nc2c(ccc3nc(NC(=O)c4ccc5c(c4)OCCO5)sc32)s1 784 nM
N#C/C(=N/Nc1ccc([N+](=O)[O-])cc1)C(=N)N1CCCCC1 2610 nM
